Test results: ChEMBL document CHEMBL4196115 (ACS Med Chem Lett, 2018)
Positions count from the first letter of the chain named. Active and inactive are the calls of the source. No cut-off for these calls is given here.

Experiments:
[1] = target: T1, Muscarinic acetylcholine receptor M1 (Homo sapiens) (UniProt P11229); assay: Positive allosteric modulation of human muscarinic acetylcholine receptor M1 expressed in CHO cells assessed as increase in acetylcholine-induced calcium mobilization pretreated for 4 mins followed by acetylcholine addition and measured after 4 mins by Fluo-4-AM dye based FLIPR assay; type: functional, cell-based
T1 sequence (whole entry): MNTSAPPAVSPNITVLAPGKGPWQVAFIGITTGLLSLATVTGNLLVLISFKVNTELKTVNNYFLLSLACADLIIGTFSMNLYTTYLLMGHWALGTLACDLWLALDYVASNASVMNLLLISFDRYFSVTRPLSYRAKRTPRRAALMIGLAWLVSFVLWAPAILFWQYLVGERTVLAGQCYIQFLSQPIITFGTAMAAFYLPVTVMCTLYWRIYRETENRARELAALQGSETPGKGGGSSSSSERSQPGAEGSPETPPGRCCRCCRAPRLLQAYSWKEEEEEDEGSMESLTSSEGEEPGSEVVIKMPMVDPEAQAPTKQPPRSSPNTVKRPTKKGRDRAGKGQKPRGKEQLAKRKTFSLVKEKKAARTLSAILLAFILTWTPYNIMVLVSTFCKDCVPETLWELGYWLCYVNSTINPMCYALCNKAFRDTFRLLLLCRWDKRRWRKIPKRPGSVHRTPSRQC

[2] = target: Muscarinic acetylcholine receptor M3 (Homo sapiens) (UniProt P20309); assay: Agonist activity at human muscarinic acetylcholine receptor M3 expressed in CHO cells; type: functional, cell-based
Muscarinic acetylcholine receptor M3 (Homo sapiens), sequence (P20309 whole entry, looked up): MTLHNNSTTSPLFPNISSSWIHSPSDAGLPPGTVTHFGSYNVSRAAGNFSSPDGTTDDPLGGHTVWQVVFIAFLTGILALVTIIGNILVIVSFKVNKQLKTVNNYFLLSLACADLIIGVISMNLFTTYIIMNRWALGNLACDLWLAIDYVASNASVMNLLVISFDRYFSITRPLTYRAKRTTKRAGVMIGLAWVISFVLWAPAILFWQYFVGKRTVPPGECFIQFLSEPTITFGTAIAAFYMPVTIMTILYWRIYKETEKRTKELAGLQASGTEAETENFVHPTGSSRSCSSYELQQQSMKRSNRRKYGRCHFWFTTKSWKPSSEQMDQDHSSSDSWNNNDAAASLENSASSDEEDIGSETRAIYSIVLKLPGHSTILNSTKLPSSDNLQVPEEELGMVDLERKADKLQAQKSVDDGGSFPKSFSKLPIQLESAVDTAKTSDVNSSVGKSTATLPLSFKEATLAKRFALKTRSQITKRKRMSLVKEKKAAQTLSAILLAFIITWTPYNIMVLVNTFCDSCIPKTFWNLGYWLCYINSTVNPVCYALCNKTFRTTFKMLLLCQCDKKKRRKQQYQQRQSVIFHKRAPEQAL

[3] = target: T2, Muscarinic acetylcholine receptor M1 (Mus musculus) (UniProt P12657); conditions: CHO
T2 sequence (whole entry): T1 sequence (whole entry) with A5V, T254S, R320K, A337G, I413V
Description: Positive allosteric modulation of mouse muscarinic acetylcholine receptor M1 expressed in CHO cells assessed as increase in acetylcholine-induced calcium mobilization pretreated for 4 mins followed by acetylcholine addition and measured after 4 mins by Fluo-4-AM dye based FLIPR assay

[4] = target: T3, Muscarinic acetylcholine receptor M1 (Rattus norvegicus) (UniProt P08482); conditions: CHO
T3 sequence (whole entry): T1 sequence (whole entry) with A5V, T254S, P309S, R320K, A337G, I413V
Description: Positive allosteric modulation of rat muscarinic acetylcholine receptor M1 expressed in CHO cells assessed as increase in acetylcholine-induced calcium mobilization pretreated for 4 mins followed by acetylcholine addition and measured after 4 mins by Fluo-4-AM dye based FLIPR assay

[5] = target: T4, Muscarinic acetylcholine receptor M4 (Homo sapiens) (UniProt P08173); assay: Agonist activity at human muscarinic acetylcholine receptor M4 expressed in CHO cells; type: functional, cell-based
T4 sequence (whole entry): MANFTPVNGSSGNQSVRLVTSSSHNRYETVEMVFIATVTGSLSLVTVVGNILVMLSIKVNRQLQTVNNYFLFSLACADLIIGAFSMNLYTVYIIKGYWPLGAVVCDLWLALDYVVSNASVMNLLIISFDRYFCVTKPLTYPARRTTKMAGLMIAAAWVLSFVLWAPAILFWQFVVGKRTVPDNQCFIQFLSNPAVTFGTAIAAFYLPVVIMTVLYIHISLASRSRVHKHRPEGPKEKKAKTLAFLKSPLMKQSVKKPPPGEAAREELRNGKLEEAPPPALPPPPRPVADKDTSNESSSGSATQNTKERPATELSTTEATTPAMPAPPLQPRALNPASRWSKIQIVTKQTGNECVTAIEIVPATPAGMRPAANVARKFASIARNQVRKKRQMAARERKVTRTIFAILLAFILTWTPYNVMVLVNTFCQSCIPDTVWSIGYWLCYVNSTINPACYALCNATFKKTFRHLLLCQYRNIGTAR

[6] = target: T5, Muscarinic acetylcholine receptor M5 (Homo sapiens) (UniProt P08912); assay: Agonist activity at human muscarinic acetylcholine receptor M5 expressed in CHO cells; type: functional, cell-based
T5 sequence (whole entry): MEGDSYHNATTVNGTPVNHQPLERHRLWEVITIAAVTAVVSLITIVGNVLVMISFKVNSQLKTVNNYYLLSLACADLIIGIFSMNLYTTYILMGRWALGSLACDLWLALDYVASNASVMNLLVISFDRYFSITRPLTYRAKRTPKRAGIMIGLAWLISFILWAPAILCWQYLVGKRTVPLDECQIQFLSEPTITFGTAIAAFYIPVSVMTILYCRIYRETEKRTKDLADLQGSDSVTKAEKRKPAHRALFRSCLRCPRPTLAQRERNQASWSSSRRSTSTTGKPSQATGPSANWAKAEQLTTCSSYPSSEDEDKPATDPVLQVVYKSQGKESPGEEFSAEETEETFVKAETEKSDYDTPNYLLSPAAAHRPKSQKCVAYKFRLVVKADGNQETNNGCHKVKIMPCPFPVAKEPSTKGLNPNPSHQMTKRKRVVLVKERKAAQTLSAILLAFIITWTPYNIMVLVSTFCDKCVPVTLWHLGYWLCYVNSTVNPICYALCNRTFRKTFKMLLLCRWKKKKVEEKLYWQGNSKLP

`Cc1ccc(Cc2cc3c(=O)n([C@H]4CCCC[C@@H]4O)cnc3c3ccccc23)cn1` was tested, and the IP [1] was 19 nM, the Activity [2] was “inactive” and the IP [3] was 6.7 nM. For the same compound, the IP [4] was 14 nM, the Activity [5] was “inactive” and the Activity [6] was “inactive”.
